Source: publication PMC11730522 (BMC Pharmacology & Toxicology, 2025)

Experiment: Pharmacokinetic study, plasma EZ levels by HPLC
Format: in vivo, rats

O=C1[C@H](CC[C@H](O)c2ccc(F)cc2)[C@@H](c2ccc(O)cc2)N1c1ccc(F)cc1 [EZ, Ezetimibe]
drop of plasma level of EZ from the highest level (after 4 h): 50%
Tmax (rat, plasma, po, 10 mg/kg): 2 h
peak plasma concentration of EZ (rats, oral): 24.36 ± 1.36 µg/mL
